Structures are written as SMILES. Where a name gives a salt, the structure may show the parent alone.

The target of one assay is human GlyT1c transporter (Homo sapiens (Human), UniProt P48067). Put plainly: Radioligand binding assay using recombinant CHO cell membranes expressing human GlyT1. The following applies: human GlyT1c-expressing CHO cell membranes; hydrochloride; read-out: radioligand binding Kiapp. From the text: 2. Radioligand binding assays using recombinant CHO cell membranes expressing human GlyT1: […]
Sequence of human GlyT1c transporter (P48067 whole entry): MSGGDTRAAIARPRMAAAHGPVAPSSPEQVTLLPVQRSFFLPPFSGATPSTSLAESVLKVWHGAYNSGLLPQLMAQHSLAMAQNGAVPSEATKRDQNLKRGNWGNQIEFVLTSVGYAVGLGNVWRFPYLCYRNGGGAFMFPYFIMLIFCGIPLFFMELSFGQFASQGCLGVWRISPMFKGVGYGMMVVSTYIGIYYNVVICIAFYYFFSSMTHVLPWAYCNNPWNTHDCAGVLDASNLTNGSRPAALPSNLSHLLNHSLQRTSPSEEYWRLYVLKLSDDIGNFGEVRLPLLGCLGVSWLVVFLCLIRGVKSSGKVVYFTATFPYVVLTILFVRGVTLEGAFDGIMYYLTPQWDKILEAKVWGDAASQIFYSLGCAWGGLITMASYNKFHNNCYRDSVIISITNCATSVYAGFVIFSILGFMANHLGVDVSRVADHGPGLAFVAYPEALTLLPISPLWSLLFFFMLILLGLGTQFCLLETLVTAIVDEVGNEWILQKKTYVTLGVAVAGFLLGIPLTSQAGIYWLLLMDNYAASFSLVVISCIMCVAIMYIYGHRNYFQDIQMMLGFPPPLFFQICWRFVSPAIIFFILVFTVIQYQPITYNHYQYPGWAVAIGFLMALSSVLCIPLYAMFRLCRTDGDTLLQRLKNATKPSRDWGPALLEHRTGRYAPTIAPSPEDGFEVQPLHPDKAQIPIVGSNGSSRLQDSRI
In the case of `Cn1cnc(S(=O)(=O)NCCOc2ccc3c(c2)C(Cc2ccccc2)C(N2CCCC2)CC3)c1` (single isomer, unassigned; (-)) [Example 117, (−)-N-(2-(8-benzyl-7-(pyrrolidin-1-yl)-5,6,7,8-tetrahydronaphthalen-2-yloxy)ethyl)-1-methyl-1H-imidazole-4-sulfonamide hydrochloride], the Ki is ≤ 10 nM.

The same assay, now with this note: human GlyT1c-expressing CHO cell membranes; read-out: radioligand binding Kiapp.
On to `CN(CCOc1ccc2c(c1)C(Cc1ccc(Cl)c(Cl)c1)C(N1CCCC1)CC2)S(=O)(=O)CC1CC1` (stereo not drawn) [Example 126, C-Cyclopropyl-N-{2-[8-(3,4-dichloro-benzyl)-7-pyrrolidin-1-yl-5,6,7,8-tetrahydronaphthalen-2-yloxy]-ethyl}-N-methyl-methanesulfonamide hydrochloride], for which the Ki was ≤ 10 nM.

As for `CCCS(=O)(=O)N1CC(c2ccc3c(c2)C(Cc2cccc(Cl)c2)C(N)CC3)C1` (stereo not drawn) [Example 283, 1-(3-Chloro-benzyl)-7-[1-(propane-1-sulfonyl)-azetidin-3-yl]-1,2,3,4-tetrahydro-naphthalen-2-ylamine hydrochloride], the Ki was ≤ 1000 nM.

Regarding `NC1CCc2ccc(OCCNS(=O)(=O)C3CCCCC3)cc2C1Cc1ccc(Cl)c(Cl)c1` (stereo not drawn) [Example 85, Cyclohexanesulfonic acid {2-[7-amino-8-(3,4-dichloro-benzyl)-5,6,7,8-tetrahydro-naphthalen-2-yloxy]-ethyl}-amide hydrochloride], the Ki is ≤ 1000 nM.

With `O=S(=O)(CC1CC1)NCCOc1ccc2c(c1)C(Cc1cccc(F)c1)C(N1CCCC1)CC2` (stereo not drawn) [Example 138, 1-Cyclopropyl-N-(2-{[8-(3-fluorobenzyl)-7-(pyrrolidin-1-yl)-5,6,7,8-tetrahydronaphthalen-2-yl]oxy}ethyl)methanesulfonamide hydrochloride], the Ki was ≤ 10 nM.

With `Cn1cc(S(=O)(=O)NCc2ccc3c(c2)C(Cc2cccc(F)c2)C(N)CC3)cn1` (stereo not drawn) [Example 178, N-{[7-Amino-8-(3-fluorobenzyl)-5,6,7,8-tetrahydronaphthalen-2-yl]methyl}-1-methyl-1H-pyrazole-4-sulfonamide hydrochloride], the Ki is ≤ 10 nM.

With `NC1CCc2ccc(CCNS(=O)(=O)CC3CC3)cc2C1Cc1cccc(Cl)c1` (stereo not drawn) [Example 310, N-{2-[7-Amino-8-(3-chloro-benzyl)-5,6,7,8-tetrahydro-naphthalen-2-yl]-ethyl}-C-cyclopropyl-methanesulfonamide hydrochloride], the Ki is ≤ 1000 nM.

Turning to `CCCS(=O)(=O)NCC#Cc1ccc2c(c1)C(Cc1ccccc1)C(NC(C)=O)CC2` (stereo not drawn) [Example 276, N-[1-Benzyl-7-{3-[(propylsulfonyl)amino]prop-1-yn-1-yl}-1,2,3,4-tetrahydronaphthalen-2-yl]acetamide], the Ki was ≤ 10000 nM.

For `CCOC(=O)NC1CCc2ccc(OCCN(C)S(=O)(=O)CC3CC3)cc2C1Cc1cccc(Cl)c1` (stereo not drawn) [Example 290, {1-(3-Chloro-benzyl)-7-[2-(cyclopropylmethanesulfonyl-methyl-amino)-ethoxy]-1,2,3,4-tetrahydro-naphthalen-2-yl}-carbamic acid ethyl ester], the Ki is ≤ 10000 nM.

In the case of `CN(CCOc1ccc2c(c1)C(Cc1ccccc1)C(N)CC2)S(=O)(=O)CC1CC1` (stereo not drawn) [Example 130, N-[2-(7-Amino-8-benzyl-5,6,7,8-tetrahydro-naphthalen-2-yloxy)-ethyl]-C-cyclopropyl-Nmethyl-methanesulfonamide hydrochloride], the Ki was ≤ 10 nM.

As for `N#Cc1cccc(CC2c3cc(OCCNS(=O)(=O)CC4CC4)ccc3CCC2N2CCCC2)c1` (stereo not drawn) [Example 155, N-(2-{[8-(3-Cyanobenzyl)-7-(pyrrolidin-1-yl)-5,6,7,8-tetrahydronaphthalen-2-yl]oxy}ethyl)-1-cyclopropylmethanesulfonamide hydrochloride], the Ki was ≤ 1000 nM.

`Cn1cnc(S(=O)(=O)NCCOc2ccc3c(c2)C(Cc2cccc(C#N)c2)C(N2CCCC2)CC3)c1` (stereo not drawn) [Example 153, N-(2-{[8-(3-Cyanobenzyl)-7-(pyrrolidin-1-yl)-5,6,7,8-tetrahydronaphthalen-2-yl]oxy}ethyl)-1-methyl-1H-imidazole-4-sulfonamide]: the Ki was ≤ 100 nM.

For the molecule `CNC1CCc2ccc(OCCNS(=O)(=O)CC3CC3)cc2C1Cc1cc(F)cc(F)c1` (single isomer, unassigned; enantiomer 1) [Example 245, Enantiomer 1 of 1-cyclopropyl-N-(2-{[8-(3,5-difluorobenzyl)-7-(methylamino)-5,6,7,8-tetrahydronaphthalen-2-yl]oxy}ethyl)methanesulfonamide hydrochloride], the Ki was ≤ 1000 nM.

On to `Cn1ccc(S(=O)(=O)NCCOc2ccc3c(c2)C(Cc2ccccc2)C(N2CCC2)CC3)c1` (stereo not drawn) [Example 268, N-(2-{[7-(Azetidin-1-yl)-8-benzyl-5,6,7,8-tetrahydronaphthalen-2-yl]oxy}ethyl)-1-methyl-1H-pyrrole-3-sulfonamide], for which the Ki is ≤ 10 nM.

For `Cn1cnc(S(=O)(=O)NCc2ccc3c(c2)C(Cc2ccccc2)C(N2CCOCC2)CC3)c1` (stereo not drawn) [Example 257, N-{[8-Benzyl-7-(morpholin-4-yl)-5,6,7,8-tetrahydronaphthalen-2-yl]methyl}-1-methyl-1H-imidazole-4-sulfonamide], the Ki was ≤ 100 nM.

As for `CNC1CCc2ccc(OCCNS(=O)(=O)CC3CC3)cc2C1Cc1cccc(F)c1` (single isomer, unassigned; enantiomer 2) [Example 239, Enantiomer 2 of C-cyclopropyl-N-{2-[8-(3-fluoro-benzyl)-7-methylamino-5,6,7,8-tetrahydronaphthalen-2-yloxy]-ethyl}-methanesulfonamide hydrochloride], the Ki is ≤ 1000 nM.

On to `NC1CCc2ccc(OCCNS(=O)(=O)CC3CC3)cc2C1Cc1cccc(F)c1` (stereo not drawn) [Example 235, N-(2-{[7-Amino-8-(3-fluorobenzyl)-5,6,7,8-tetrahydronaphthalen-2-yl]oxy}ethyl)-1-cyclopropylmethanesulfonamide hydrochloride], for which the Ki was ≤ 10 nM.

Turning to `CN(CCOc1ccc2c(c1)C(Cc1ccccc1)C(N1CCCC1)CC2)S(=O)(=O)c1cn(C)cn1` (stereo not drawn) [Example 101, 1-Methyl-1H-imidazole-4-sulfonic acid [2-(8-benzyl-7-pyrrolidin-1-yl-5,6,7,8-tetrahydronaphthalen-2-yloxy)-ethyl]-methyl-amide hydrochloride], the Ki was ≤ 100 nM.

For the molecule `CCCS(=O)(=O)NCCCc1ccc2c(c1)C(Cc1ccc(F)c(F)c1)C(NCC)CC2` (stereo not drawn) [Example 225, N-{3-[8-(3,4-Difluorobenzyl)-7-(ethylamino)-5,6,7,8-tetrahydronaphthalen-2-yl]propyl}propane-1-sulfonamide trifluoroacetate], the Ki was ≤ 100 nM.

As to `CNC1CCc2ccc(OCCNS(=O)(=O)CC3CC3)cc2C1Cc1cccc(F)c1` (stereo not drawn) [Example 247, 1-Cyclopropyl-N-(2-{[8-(3-fluorobenzyl)-7-(methylamino)-5,6,7,8-tetrahydronaphthalen-2-yl]oxy}ethyl)methanesulfonamide hydrochloride], the Ki was ≤ 10 nM.

`CNC1CCc2ccc(OCCNS(=O)(=O)CC3CC3)cc2C1Cc1ccc(F)cc1` (stereo not drawn) [Example 161, 1-Cyclopropyl-N-(2-{[8-(4-fluorobenzyl)-7-(methylamino)-5,6,7,8-tetrahydronaphthalen-2-yl]oxy}ethyl)methanesulfonamide]: the Ki is ≤ 10 nM.

For the origin of these results see patent publication US9067871B2, “Aminotetraline derivatives, pharmaceutical compositions containing them, and their use in therapy” (ABBVIE DEUTSCHLAND GMBH & CO KG, priority 2009, dated 2015).
